According to patent US9169224B2, “Piperazinyl and piperidinyl ureas as modulators of fatty acid amide hydrolase” (Janssen Pharmaceutica NV, priority 2004, dated 2015):
Structures can show the parent of a compound that is named as a salt.

Legend:
Format in all cases: biochemical
rat FAAH = rat FAAH (Rattus norvegicus (Rat), UniProt P97612); assay: Assay Method 3: FAAH assay, cells transfected with rat FAAH; details: T84 or rat FAAH-transfected SK-N-MC cell homogenate, 3H-AEA tracer 80 nM, 1 h at rt
Protocol: Assay Method 3 A. Transfection of Cells with Rat FAAH
(§1) A 10-cm tissue culture dish with a confluent monolayer of SK-N-MC cells was split 2 days (d) prior to transfection. Using sterile technique, the media was removed and the cells were detached from the dish by the addition of trypsin. One fifth of the cells were then placed onto a new 10-cm dish. Cells were grown in a 37° C. incubator with 5% CO2 in Minimal Essential Media Eagle with 10% Fetal Bovine Serum. After 2 d, cells were approximately 80% confluent. These cells were removed from the dish with trypsin and pelleted in a clinical centrifuge. The pellet was re-suspended in 400 μL complete media and transferred to an electroporation cuvette with a 0.4 cm gap between the electrodes. Supercoiled rat FAAH cDNA (1 μg) was added to the cells and mixed. The voltage for the electroporation was set at 0.25 kV, and the capacitance was set at 960 μF. After electroporation, the cells were diluted into complete media (10 mL) and plated onto four 10-cm dishes. Because of the variability in the efficiency of electroporation, four different concentrations of cells were plated. The ratios used were 1:20, 1:10, and 1:5, with the remainder of the cells being added to the fourth dish. The cells were allowed to recover for 24 h before adding the selection media (complete media with 600 μg/mL G418). After 10 d, dishes were analyzed for surviving colonies of cells. Dishes with well-isolated colonies were used. Cells from individual colonies were isolated and tested.
(§2) T84 frozen cell pellets or transfected SK-N-MC cells (contents of 1×15 cm culture dishes) were homogenized in 50 mL of FAAH assay buffer (125 mM Tris, 1 mM EDTA, 0.2% Glycerol, 0.02% Triton X-100, 0.4 mM Hepes, pH 9). The assay mixture consisted of 50 μL of the cell homogenate, 10 μL of the test compound, and 40 μL of anandamide [1-^3H-ethanolamine] (^3H-AEA, Perkin-Elmer, 10.3 Ci/mmol), which was added last, for a final tracer concentration of 80 nM. The reaction mixture was incubated at rt for 1 h. During the incubation, 96-well Multiscreen filter plates (catalog number MAFCNOB50; Millipore, Bedford, Mass., USA) were loaded with 25 μL of activated charcoal (Multiscreen column loader, catalog number MACL09625, Millipore) and washed once with 100 μL of MeOH. Also during the incubation, 96-well DYNEX MicroLite plates (catalog number NL510410) were loaded with 100 μL of MicroScint40 (catalog number 6013641, Packard Bioscience, Meriden, Conn., USA). After the 1 h incubation, 60 μL of the reaction mixture were transferred to the charcoal plates, which were then assembled on top of the DYNEX plates using Centrifuge Alignment Frames (catalog number MACF09604, Millipore). The unbound labeled ethanolamine was centrifuged through to the bottom plate (5 min at 2000 rpm), which was preloaded with the scintillant, as described above. The plates were sealed and left at rt for 1 h before counting on a Hewlett Packard TopCount.

FAAH [1] = molecular target: T1, FAAH (Homo sapiens (Human), UniProt O00519); assay: Assay Method 2: FAAH assay, cells transfected with human FAAH; details: T84 or human FAAH-transfected SK-N-MC cell homogenate, 3H-AEA tracer 80 nM, 1 h at rt
Protocol: Assay Method 2 A. Transfection of Cells with Human FAAH
as §1, with “Supercoiled human” for “Supercoiled rat”, “([…])” for “(1 μg)”
as §2, with “[…]” for “40 μL”

FAAH [2] = molecular target: T1, FAAH; assay: Assay Method 1: FAAH assay, T84 cell homogenate, 3H-anandamide hydrolysis; details: 3H-AEA tracer 200 nM, 1 h at rt
Summary of the method: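 Homogenate of human T84 cells in pH 9 Tris/EDTA buffer with 0.02% Triton X-100 was incubated with compound and 200 nM final 3H-anandamide for 1 h at rt. Released [3H]ethanolamine was separated from substrate through activated charcoal by centrifugation and quantified by scintillation counting.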

T1 sequence (O00519 whole entry): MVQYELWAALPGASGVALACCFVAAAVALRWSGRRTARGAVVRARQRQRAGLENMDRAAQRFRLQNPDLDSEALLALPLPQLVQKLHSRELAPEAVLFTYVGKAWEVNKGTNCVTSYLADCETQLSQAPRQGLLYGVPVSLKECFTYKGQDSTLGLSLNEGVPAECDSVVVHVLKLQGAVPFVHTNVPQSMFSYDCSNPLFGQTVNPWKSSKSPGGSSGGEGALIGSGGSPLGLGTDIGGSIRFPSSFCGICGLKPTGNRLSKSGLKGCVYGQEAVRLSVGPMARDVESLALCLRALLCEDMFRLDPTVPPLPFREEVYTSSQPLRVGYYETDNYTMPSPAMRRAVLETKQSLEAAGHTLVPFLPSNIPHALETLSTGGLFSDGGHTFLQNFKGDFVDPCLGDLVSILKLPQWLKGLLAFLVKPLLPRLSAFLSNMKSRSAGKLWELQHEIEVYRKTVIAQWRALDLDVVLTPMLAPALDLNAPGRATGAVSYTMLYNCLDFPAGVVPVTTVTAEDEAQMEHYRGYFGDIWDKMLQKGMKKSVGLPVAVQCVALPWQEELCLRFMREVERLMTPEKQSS
rat FAAH, sequence (P97612 whole entry): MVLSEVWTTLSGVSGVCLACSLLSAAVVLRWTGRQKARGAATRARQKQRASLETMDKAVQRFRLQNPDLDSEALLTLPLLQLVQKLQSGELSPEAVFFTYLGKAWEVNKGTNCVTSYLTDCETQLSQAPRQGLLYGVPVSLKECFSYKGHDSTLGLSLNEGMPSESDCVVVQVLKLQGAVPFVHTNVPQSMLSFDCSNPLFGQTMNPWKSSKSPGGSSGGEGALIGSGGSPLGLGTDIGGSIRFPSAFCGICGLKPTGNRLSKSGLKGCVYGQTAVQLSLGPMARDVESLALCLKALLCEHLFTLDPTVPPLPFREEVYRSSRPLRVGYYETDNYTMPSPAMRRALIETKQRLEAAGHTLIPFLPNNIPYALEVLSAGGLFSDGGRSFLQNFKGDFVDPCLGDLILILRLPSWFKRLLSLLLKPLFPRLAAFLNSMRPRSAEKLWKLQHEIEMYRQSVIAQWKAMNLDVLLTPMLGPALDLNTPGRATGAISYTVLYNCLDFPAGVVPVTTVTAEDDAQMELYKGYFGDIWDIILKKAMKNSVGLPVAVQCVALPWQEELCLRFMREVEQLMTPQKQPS

| SMILES | IC50 (rat FAAH) | IC50 (FAAH [1]) | IC50 (rat FAAH; hydrochloride) | IC50 (FAAH [2]; hydrochloride) | IC50 (FAAH [2]) |
| --- | --- | --- | --- | --- | --- |
| O=C(Nc1ccncn1)N1CCN(Cc2ccc(Br)c(Br)c2)CC1 [Example 154, 4-(3,4-Dibromo-benzyl)-piperazine-1-carboxylic acid pyrimidin-4-ylamide] | 2000 nM | 282 nM |  |  |  |
| CN(C(=O)N1CCN(Cc2ccc(Br)c(Br)c2)CC1)c1ccccc1 [Example 160, 4-(3,4-Dibromo-benzyl)-piperazine-1-carboxylic acid methyl-phenyl-amide] | 10000 nM | > 10000 nM |  |  |  |
| O=C(Nc1ccccn1)N1CCN(Cc2cnc3ccccc3c2)CC1 [Example 143, 4-Quinolin-3-ylmethyl-piperazine-1-carboxylic acid pyridin-2-ylamide] | 8000 nM | 1800 nM |  |  |  |
| O=C(Nc1ccncc1)N1CCN(Cc2cnc3ccccc3c2)CC1 [Example 144, 4-Quinolin-3-ylmethyl-piperazine-1-carboxylic acid pyridin-4-ylamide] | 10000 nM | 2000 nM |  |  |  |
| O=C(Nc1ccccc1)N1CCN(Cc2ccc(Br)c(Br)c2)CC1 [Example 162, 4-(3,4-Dibromo-benzyl)-piperazine-1-carboxylic acid phenylamide hydrochloride] |  |  | 270 nM | 38 nM |  |
| O=C(Nc1ccncn1)N1CCN(Cc2cnc3ccccc3c2)CC1 [Example 152, 4-Quinolin-3-ylmethyl-piperazine-1-carboxylic acid pyrimidin-4-ylamide] | 10000 nM | 4000 nM |  |  |  |
| COc1cc(Br)cc(CN2CCN(C(=O)Nc3ccccc3)CC2)c1O [Example 26, 4-(5-Bromo-2-hydroxy-3-methoxy-benzyl)-piperazine-1-carboxylic acid phenylamide] | 130 nM |  |  |  | 79 nM |
| O=C(Nc1ccccc1)N1CCN(Cc2ccc3c(c2)OCO3)CC1 [Example B, 4-Benzo[1,3]dioxol-5-ylmethyl-piperazine-1-carboxylic acid phenylamide, reference compound] | 8000 nM |  |  |  | 350 nM |
| O=C(Nc1ccccn1)N1CCN(Cc2ccc3c(c2)OCO3)CC1 [Example 149, 4-Benzo[1,3]dioxol-5-ylmethyl-piperazine-1-carboxylic acid pyridin-2-ylamide] | 10000 nM | 4000 nM |  |  |  |
| O=C(Nc1ccccc1)N1CCN(Cc2ccc(Cl)c(Cl)c2)CC1 [Example 157, 4-(3,4-Dichloro-benzyl)-piperazine-1-carboxylic acid phenylamide] | 350 nM | 65 nM |  |  |  |
| COC(=O)c1ccc(NC(=O)N2CCN(Cc3cnc4ccccc4c3)CC2)cc1 [Example 107, 4-[(4-Quinolin-3-ylmethyl-piperazine-1-carbonyl)-amino]-benzoic acid methyl ester] | 8000 nM | 650 nM |  |  |  |
| O=C(Nc1ncccn1)N1CCN(Cc2ccc3c(c2)OCO3)CC1 [Example 148, 4-Benzo[1,3]dioxol-5-ylmethyl-piperazine-1-carboxylic acid pyrimidin-2-ylamide] | 10000 nM | > 10000 nM |  |  |  |
| O=C(Nc1cccnc1)N1CCN(Cc2cnc3ccccc3c2)CC1 [Example 142, 4-Quinolin-3-ylmethyl-piperazine-1-carboxylic acid pyridin-3-ylamide] | 4000 nM | 4100 nM |  |  |  |
| O=C(Nc1ccccc1)N1CCN(Cc2ccc3ccccc3n2)CC1 [Example 19, 4-Quinolin-2-ylmethyl-piperazine-1-carboxylic acid phenylamide] | 350 nM |  |  |  | 19 nM |
| O=C(O)c1ccc(NC(=O)N2CCN(Cc3cnc4ccccc4c3)CC2)cc1 [Example 155, 4-[(4-Quinolin-3-ylmethyl-piperazine-1-carbonyl)-amino]-benzoic acid] | 10000 nM | 8000 nM |  |  |  |
| O=C(Nc1ccc(F)cc1F)N1CCN(Cc2cnc3ccccc3c2)CC1 [Example 111, 4-Quinolin-3-ylmethyl-piperazine-1-carboxylic acid (2,4-difluoro-phenyl)-amide] | 2000 nM |  |  |  | 250 nM |
| O=C(Nc1ccc(F)cc1)N1CCN(Cc2ccc3ccccc3c2)CC1 [Example 57, 4-Naphthalen-2-ylmethyl-piperazine-1-carboxylic acid (4-fluoro-phenyl)-amide] | 430 nM |  |  |  | 54 nM |
| O=C(Nc1ccccc1F)N1CCN(Cc2cnc3ccccc3c2)CC1 [Example 112, 4-Quinolin-3-ylmethyl-piperazine-1-carboxylic acid (2-fluoro-phenyl)-amide] | 370 nM |  |  |  | 61 nM |
| Cn1c(CN2CCN(C(=O)Nc3ccccc3)CC2)cc2ccccc21 [Example 22, 4-(1-Methyl-1H-indol-2-ylmethyl)-piperazine-1-carboxylic acid phenylamide] | 1400 nM |  |  |  | 26 nM |
| O=C(Nc1ccccc1)N1CCN(Cc2ccc3ccc4cccc5ccc2c3c45)CC1 [Example 68, 4-Pyren-1-ylmethyl-piperazine-1-carboxylic acid phenylamide] | 610 nM |  |  |  | 95 nM |
| O=C(O)c1ccccc1NC(=O)N1CCN(Cc2cnc3ccccc3c2)CC1 [Example 140, 2-[(4-Quinolin-3-ylmethyl-piperazine-1-carbonyl)-amino]-benzoic acid (potassium salt)] | 10000 nM | > 10000 nM |  |  |  |
| O=C(Nc1ccc(F)cc1)N1CCN(Cc2ccc3c(c2)OCO3)CC1 [Example G, 4-Benzo[1,3]dioxol-5-ylmethyl-piperazine-1-carboxylic acid (4-fluoro-phenyl)-amide, reference compound] | 10000 nM |  |  |  | 1600 nM |
